Laboratory results: PubChem BioAssay AID248 (DTP/NCI, 2004)
“And” between values parts separate entries of the source, which are not always exact repeats. Equal values may be shown once. Toxic doses and inconclusive results are not listed. No stated cut-off is given here; in the data, active means T/C of 150% or more; inactive means T/C below 125%.

Test system: L1210 leukemia ip in BDF1 mice, survival T/C
Assay: NCI In Vivo Anticancer Drug Screen. Data for tumor model L1210 Leukemia (intraperitoneal) in B6D2F1 (BDF1) mice
Conditions: endpoint: mean survival time, higher = longer survival
Procedure, shortened: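 Transplantable tumor model; survival measured in treated vs vehicle control mice. Value = treated/control.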

[1] = dose: 100.0 mg/kg/injection, schedule: Q04DX002 (ip), vehicle: Klucel (hydroxypropylcellulose) (HPC)
[2] = dose: 200.0 mg/kg/injection, schedule: Q04DX002 (ip), vehicle: Klucel (hydroxypropylcellulose) (HPC)
[3] = dose: 400.0 mg/kg/injection, schedule: Q04DX002 (ip), vehicle: Klucel (hydroxypropylcellulose) (HPC)
[4] = dose: 100.0 mg/kg/injection, schedule: Q01DX009 (ip), vehicle: saline
[5] = dose: 100.0 mg/kg/injection, schedule: Q04DX003 (ip), vehicle: saline
[6] = dose: 200.0 mg/kg/injection, schedule: Q01DX009 (ip), vehicle: saline
[7] = dose: 200.0 mg/kg/injection, schedule: Q04DX003 (ip), vehicle: saline
[8] = dose: 400.0 mg/kg/injection, schedule: Q01DX009 (ip), vehicle: saline
[9] = dose: 400.0 mg/kg/injection, schedule: Q04DX003 (ip), vehicle: saline
[10] = dose: 100.0 mg/kg/injection, schedule: Q01DX009 (ip), vehicle: Klucel (hydroxypropylcellulose) (HPC)
[11] = dose: 100.0 mg/kg/injection, schedule: Q04DX003 (ip), vehicle: Klucel (hydroxypropylcellulose) (HPC)
[12] = dose: 200.0 mg/kg/injection, schedule: Q01DX009 (ip), vehicle: Klucel (hydroxypropylcellulose) (HPC)
[13] = dose: 200.0 mg/kg/injection, schedule: Q04DX003 (ip), vehicle: Klucel (hydroxypropylcellulose) (HPC)
[14] = dose: 400.0 mg/kg/injection, schedule: Q01DX009 (ip), vehicle: Klucel (hydroxypropylcellulose) (HPC)
[15] = dose: 400.0 mg/kg/injection, schedule: Q04DX003 (ip), vehicle: Klucel (hydroxypropylcellulose) (HPC)
[16] = dose: 50.0 mg/kg/injection, schedule: Q01DX009 (ip), vehicle: saline with Tween-80
[17] = dose: 50.0 mg/kg/injection, schedule: Q01DX001 (ip), vehicle: carboxymethylcellulose (CMC)
[18] = dose: 100.0 mg/kg/injection, schedule: Q01DX001 (ip), vehicle: carboxymethylcellulose (CMC)
[19] = dose: 200.0 mg/kg/injection, schedule: Q01DX001 (ip), vehicle: carboxymethylcellulose (CMC)
[20] = dose: 400.0 mg/kg/injection, schedule: Q01DX001 (ip), vehicle: carboxymethylcellulose (CMC)
[21] = dose: 100.0 mg/kg/injection, schedule: Q01DX001 (ip), vehicle: saline
[22] = dose: 200.0 mg/kg/injection, schedule: Q01DX001 (ip), vehicle: saline
[23] = dose: 400.0 mg/kg/injection, schedule: Q01DX001 (ip), vehicle: saline
[24] = dose: 100.0 mg/kg/injection, schedule: Q01DX001 (ip), vehicle: Klucel (hydroxypropylcellulose) (HPC)
[25] = dose: 200.0 mg/kg/injection, schedule: Q01DX001 (ip), vehicle: Klucel (hydroxypropylcellulose) (HPC)

Measured: T/C

COc1ccc(C(=O)Nc2ccc(F)cc2)cc1
inactive: dose: 100.0 mg/kg/injection, schedule: Q01DX009 (ip), vehicle: carboxymethylcellulose (CMC) 100 % of control and 105 % of control | [1] 115 % of control | dose: 100.0 mg/kg/injection, schedule: Q04DX002 (ip), vehicle: carboxymethylcellulose (CMC) 103 % of control | dose: 100.0 mg/kg/injection, schedule: Q04DX003 (ip), vehicle: carboxymethylcellulose (CMC) 101 % of control | dose: 200.0 mg/kg/injection, schedule: Q01DX009 (ip), vehicle: carboxymethylcellulose (CMC) 94 % of control and 89 % of control | [2] 102 % of control | dose: 200.0 mg/kg/injection, schedule: Q04DX002 (ip), vehicle: carboxymethylcellulose (CMC) 93 % of control and 95 % of control | dose: 200.0 mg/kg/injection, schedule: Q04DX003 (ip), vehicle: carboxymethylcellulose (CMC) 106 % of control | dose: 400.0 mg/kg/injection, schedule: Q01DX009 (ip), vehicle: carboxymethylcellulose (CMC) 87 % of control | [3] 108 % of control | dose: 400.0 mg/kg/injection, schedule: Q04DX002 (ip), vehicle: carboxymethylcellulose (CMC) 93 % of control and 100 % of control | dose: 400.0 mg/kg/injection, schedule: Q04DX003 (ip), vehicle: carboxymethylcellulose (CMC) 102 % of control

CCOC(=O)CNCc1ccc(F)cc1
inactive: [4] 105 % of control | [5] 104 % of control | [6] 103 % of control | [7] 110 % of control | [8] 88 % of control | [9] 100 % of control

CC[S+](CC)CC
inactive: [5] 95 % of control | [7] 95 % of control

O=C(Nc1ccccc1Cl)N(Cc1ccccc1)c1ccccc1
inactive: [10] 99 % of control | [11] 96 % of control | [12] 91 % of control | [13] 94 % of control | [14] 94 % of control | [15] 96 % of control

O=C(Cl)c1ccccc1Sc1ccccc1
inactive: dose: 25.0 mg/kg/injection, schedule: Q01DX009 (ip), vehicle: saline with Tween-80 106 % of control | [16] 97 % of control | dose: 100.0 mg/kg/injection, schedule: Q01DX009 (ip), vehicle: saline with Tween-80 92 % of control

Cc1ccc(NC(=O)NCCCCl)cc1
inactive: [17] 98 % of control | [18] 110 % of control | [19] 98 % of control | [20] 106 % of control

Cc1cc(/C=N/Nc2ccc3cccc(O)c3n2)c(O)c2ncccc12
inactive: [19] 93 % of control

COc1ccc(C(=O)c2ccc(Br)s2)cc1
inactive: [10] 94 % of control | [11] 97 % of control | [12] 97 % of control | [13] 97 % of control | [14] 95 % of control | [15] 96 % of control

CS(=O)(=O)Nc1ccccc1-c1nc2ccccc2c(=O)o1
inactive: dose: 50.0 mg/kg/injection, schedule: Q04DX002 (ip), vehicle: Klucel (hydroxypropylcellulose) (HPC) 98 % of control | [1] 98 % of control | [2] 98 % of control | [3] 92 % of control

OCCCNc1nc2cc(Br)ccc2c2ccc(Br)cc12
inactive: [11] 90 % of control | [13] 105 % of control | [15] 97 % of control

CN(C)C(=O)Nc1ccc(C#N)cc1
inactive: [1] 89 % of control | [2] 103 % of control | [3] 106 % of control

NNc1nc(Nc2ccccc2)nc(Nc2ccccc2)n1
inactive: [21] 89 % of control | [22] 95 % of control | [23] 96 % of control

Clc1ccc2c(c1)Cc1cc(N=Cc3ccccc3Cl)ccc1-2
inactive: dose: 12.5 mg/kg/injection, schedule: Q01DX001 (ip), vehicle: saline 97 % of control | dose: 12.5 mg/kg/injection, schedule: Q04DX003 (ip), vehicle: saline 92 % of control | dose: 25.0 mg/kg/injection, schedule: Q01DX001 (ip), vehicle: saline 87 % of control | dose: 25.0 mg/kg/injection, schedule: Q04DX003 (ip), vehicle: saline 93 % of control | dose: 50.0 mg/kg/injection, schedule: Q01DX001 (ip), vehicle: saline 106 % of control | dose: 50.0 mg/kg/injection, schedule: Q04DX003 (ip), vehicle: saline 87 % of control | dose: 65.0 mg/kg/injection, schedule: Q01DX Z (ip), vehicle: carboxymethylcellulose (CMC) 90 % of control | dose: 75.0 mg/kg/injection, schedule: Q04DX003 (ip), vehicle: saline 101 % of control | dose: 115.0 mg/kg/injection, schedule: Q04DX003 (ip), vehicle: saline 89 % of control | dose: 125.0 mg/kg/injection, schedule: Q01DX Z (ip), vehicle: carboxymethylcellulose (CMC) 96 % of control | dose: 170.0 mg/kg/injection, schedule: Q04DX003 (ip), vehicle: saline 103 % of control | [22] 89 % of control | dose: 250.0 mg/kg/injection, schedule: Q01DX Z (ip), vehicle: carboxymethylcellulose (CMC) 102 % of control | dose: 500.0 mg/kg/injection, schedule: Q01DX Z (ip), vehicle: carboxymethylcellulose (CMC) 102 % of control

CCc1c(N)nc(N)[nH]c1=O
inactive: dose: 44.0 mg/kg/injection, schedule: Q01DX001 (ip), vehicle: Klucel (hydroxypropylcellulose) (HPC) 102 % of control | dose: 67.0 mg/kg/injection, schedule: Q01DX001 (ip), vehicle: Klucel (hydroxypropylcellulose) (HPC) 96 % of control | [24] 98 % of control | dose: 150.0 mg/kg/injection, schedule: Q01DX001 (ip), vehicle: Klucel (hydroxypropylcellulose) (HPC) 96 % of control | [25] 104 % of control

CCOC1C=CC(O)C(CO)O1 (centres undefined)
inactive: [21] 101 % of control | [22] 98 % of control | [23] 95 % of control

O=C1NC(=O)C(c2ccco2)N1 (centres undefined)
inactive: [11] 105 % of control | [13] 103 % of control | [15] 114 % of control

Cc1ccc(C)c(NC(=O)Oc2ccc(-c3ccccc3)cc2)c1
inactive: [4] 96 % of control | [5] 109 % of control | [6] 95 % of control | [7] 110 % of control | [8] 95 % of control | [9] 101 % of control

O=[N+]([O-])c1ccc(N/N=C\C2CC=C3c4ccccc4CCC3C2/C=N\Nc2ccc([N+](=O)[O-])cc2[N+](=O)[O-])c([N+](=O)[O-])c1 (centres undefined)
inactive: [17] 89 % of control | [18] 93 % of control | [19] 103 % of control | [20] 108 % of control

Cc1c(Cl)cccc1NC(=O)N(C)Cc1ccccc1
inactive: [16] 109 % of control and 120 % of control | dose: 100.0 mg/kg/injection, schedule: Q04DX002 (ip), vehicle: saline with Tween-80 104 % of control and 110 % of control | dose: 100.0 mg/kg/injection, schedule: Q04DX003 (ip), vehicle: saline with Tween-80 97 % of control | dose: 200.0 mg/kg/injection, schedule: Q04DX002 (ip), vehicle: saline with Tween-80 100 % of control and 104 % of control | dose: 200.0 mg/kg/injection, schedule: Q04DX003 (ip), vehicle: saline with Tween-80 106 % of control | dose: 400.0 mg/kg/injection, schedule: Q04DX002 (ip), vehicle: saline with Tween-80 100 % of control and 103 % of control | dose: 400.0 mg/kg/injection, schedule: Q04DX003 (ip), vehicle: saline with Tween-80 101 % of control

c1ccc2[nH]c(C(=C(c3nc4ccccc4[nH]3)c3nc4ccccc4[nH]3)c3nc4ccccc4[nH]3)nc2c1
inactive: [24] 87 % of control | [11] 97 % of control | [25] 87 % of control | [13] 112 % of control | [15] 90 % of control

CSc1ncnc2c1nnn2C1OC(COC(=O)c2ccccc2)C(OC(=O)c2ccccc2)C1OC(=O)c1ccccc1 (centres undefined)
inactive: dose: 50.0 mg/kg/injection, schedule: Q01DX009 (ip), vehicle: gum acacia 93 % of control | dose: 100.0 mg/kg/injection, schedule: Q01DX001 (ip), vehicle: gum acacia 92 % of control | dose: 100.0 mg/kg/injection, schedule: Q01DX009 (ip), vehicle: gum acacia 89 % of control | dose: 200.0 mg/kg/injection, schedule: Q01DX001 (ip), vehicle: gum acacia 87 % of control
